Source: paper doi:10.1101/2024.01.31.578122v1 (biorxiv, 2024)

Key:
[1] = biological target: TRIM21 PRYSPRY (PRYSPRY domain of TRIM21) (Homo sapiens, UniProt P19474, D355A); assay: isothermal titration calorimetry; type: binding
[2] = biological target: TRIM21 PRYSPRY (PRYSPRY domain of TRIM21) (Homo sapiens, UniProt P19474); assay: microscale thermophoresis, RED-NHS labelled protein; type: binding
Sequence of TRIM21 PRYSPRY (PRYSPRY domain of TRIM21) (Homo sapiens, UniProt P19474) (P19474 287-465): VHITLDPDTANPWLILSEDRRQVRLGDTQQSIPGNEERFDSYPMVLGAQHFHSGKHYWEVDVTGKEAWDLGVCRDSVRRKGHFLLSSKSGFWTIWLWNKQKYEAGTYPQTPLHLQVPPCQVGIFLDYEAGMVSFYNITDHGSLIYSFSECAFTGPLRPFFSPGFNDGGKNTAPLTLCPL

Sequence of TRIM21 PRYSPRY (PRYSPRY domain of TRIM21) (Homo sapiens, UniProt P19474, D355A) (P19474 287-465 D355A): as the sequence (P19474 287-465) above, with D69A counted along it

Row | Kd [1] [µM] | Kd [2] [µM] | SMILES
1 | 9.11 |  | C[C@@H](O)c1ccc2c(c1)N(CCCN(C)C)c1ccccc1S2 [(R)-ACE-OH]
2 | 17.9 | 237 | C[C@H](O)c1ccc2c(c1)N(CCCN(C)C)c1ccccc1S2 [(S)-hydroxyl-acepromazine]
3 | 5.66 | 44.6 | CC(=O)c1ccc2c(c1)N(CCCN(C)C)c1ccccc1S2 [acepromazine]
